The target of this test is T1, Ileal sodium/bile acid cotransporter (Homo sapiens, UniProt Q12908).
T1 sequence (Q12908 whole entry): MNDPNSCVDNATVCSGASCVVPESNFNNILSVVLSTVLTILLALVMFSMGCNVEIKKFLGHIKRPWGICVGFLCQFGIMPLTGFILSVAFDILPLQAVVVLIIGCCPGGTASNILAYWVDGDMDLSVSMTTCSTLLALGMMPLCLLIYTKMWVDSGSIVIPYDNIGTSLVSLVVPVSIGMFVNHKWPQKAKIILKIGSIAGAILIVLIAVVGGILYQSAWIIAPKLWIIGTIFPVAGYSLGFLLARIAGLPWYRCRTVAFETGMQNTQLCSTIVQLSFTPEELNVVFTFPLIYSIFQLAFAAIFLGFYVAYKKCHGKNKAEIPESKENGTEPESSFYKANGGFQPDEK
As to the kind of experiment: Inhibition Assay. As to conditions: 25 °C. The protocol:
On the day of the uptake experiment, 10 mM HEPES was added to Hank's Balanced Salt Solution, and the pH was adjusted to 7.4 with TRIS (HBSSH). The assay buffer was prepared by adding 100 uM [3H]-taurocholate and 10 uM cold taurocholate to room temperature HBSSH. A separate washing buffer was prepared by adding 10 uM cold taurocholate to HBSSH (30 ml per assay plate) and placed on ice. Using 100% DMSO, 8 point, 3-fold dilution curves for each test compound was prepared starting at 200 uM. […] Drug plates were created by adding 3 uL of each concentration to a v-bottom 96-well plate then diluted 60-fold with 177 uL of assay buffer. Plates were removed from the incubator and allowed to cool to ambient temperature.

pIC50: −log10 of the molar value.

`CCCC[C@]1(CC)CS(=O)(=O)c2cc(CN3CCC[C@H]3C(=O)O)c(OC)cc2[C@@H](c2ccccc2)N1` [US9040518, 63] showed a pIC50 of 5.05. As for `CCCC[C@]1(CC)CS(=O)(=O)c2cc(CCCC(N)=O)c(OC)cc2[C@@H](c2ccccc2)N1` [US9040518, 24], the pIC50 is 7.14.

The term pIC50 denotes −log10 of the IC50, conventionally taken in molar units. A low value points to a high IC50.

(Values after BindingDB's records for patent US9040518 (Glaxosmithkline, 2015).)
